Drawing on ChEMBL document CHEMBL1135722, “Cysteine derivatives as inhibitors for carboxypeptidase A: synthesis and structure-activity relationships” (J Med Chem, 2002), this text covers Ki for 30 molecules.

A value given as a limit tells only on which side of the number the result lay.

The assay has as its target T1, Carboxypeptidase A1 (Bos taurus, UniProt P00730).
T1 sequence (P00730 whole entry): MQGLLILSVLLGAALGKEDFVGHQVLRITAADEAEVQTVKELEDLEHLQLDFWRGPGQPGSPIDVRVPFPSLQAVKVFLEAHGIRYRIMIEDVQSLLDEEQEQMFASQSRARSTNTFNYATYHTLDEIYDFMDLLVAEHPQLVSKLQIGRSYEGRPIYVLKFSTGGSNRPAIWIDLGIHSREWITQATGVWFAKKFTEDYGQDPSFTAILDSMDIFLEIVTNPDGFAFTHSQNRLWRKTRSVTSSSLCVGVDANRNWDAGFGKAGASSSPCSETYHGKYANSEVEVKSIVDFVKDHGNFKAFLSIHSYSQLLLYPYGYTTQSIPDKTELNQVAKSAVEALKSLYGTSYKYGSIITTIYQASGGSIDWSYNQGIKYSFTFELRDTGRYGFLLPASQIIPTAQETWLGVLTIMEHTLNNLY
Nature of the assay: Inhibition of bovine carboxypeptidase A (CPA) using hippuryl-L-phenylalanine (Hipp-L-Phe) as a substrate.
In general, Ki refers to a measure of affinity in units of concentration, obtained from inhibition or displacement. Molecule `O=C(O)C(CS)NCCCc1ccccc1` (stereo not given) came in with an inhibition constant (Ki) of 1.3 µM.

Turning to `O=C(O)[C@H](CS)NCCc1ccccc1`, the Ki amounted to 0.61 µM.

Consider `O=C(O)[C@@H](CS)NC1CCCCC1`, for which the Ki is 2.9 µM. On to `CCNC(CS)C(=O)O` (stereo not given), for which the Ki was 1.4 µM. In the case of `CNC(CS)C(=O)O` (stereo not given) it was 2.4 µM; in that of `O=C(O)[C@H](CS)NCc1ccccc1`, 33 µM; in that of `O=C(O)C(CS)CCc1ccccc1` (stereo not given), 2.1 µM. In the case of `O=C(O)[C@H](CS)NC1CCCCC1` it was 7.9 µM; in that of `N[C@H](CS)C(=O)O`, 2.3 µM; in that of `COc1ccc(CNC(CS)C(=O)O)cc1` (stereo not given), 0.85 µM. In the case of `O=C(O)C(CS)NCc1cccc2ccccc12` (stereo not given) it was 0.81 µM. `O=C(O)C(CS)CCCc1ccccc1` (stereo not given) had a Ki of 1.35 µM. The figure for `O=C(O)C(CS)CCCCc1ccccc1` (stereo not given) is 1.3 µM. On to `CN(Cc1ccccc1)C(CS)C(=O)O` (stereo not given), for which the Ki worked out at 12 µM. This Ki is about 9.2-fold higher than that of the molecule before. Take `O=C(O)[C@@H](CS)NCc1ccccc1`: the affinity, expressed as Ki, was 0.19 µM. This Ki lies about 63-fold lower than the previous one.

Consider `CC(C)NC(CS)C(=O)O` (stereo not given), for which the Ki amounted to 1.1 µM.

As for `O=C(O)C(CS)NCc1ccccc1` (stereo not given), the Ki was determined as 0.27 µM.

`O=C(O)C(CS)NCc1ccc2ccccc2c1` (stereo not given) came in with a Ki of over 500 µM.

In turn, `O=C(O)C(CS)Nc1ccccc1` (stereo not given) came in with an inhibition constant (Ki) of 5.5 µM. In turn, `CC(C)N[C@@H](CS)C(=O)O` registered a Ki of 2.9 µM. The figure for `CC(C)CNC(CS)C(=O)O` (stereo not given) is 7.5 µM; for `O=C(O)C(CS)NC1CCCCC1` (stereo not given) it is 9.6 µM; for `O=C(O)[C@@H](CS)NCCc1ccccc1` it is 0.055 µM.

Take `N[C@@H](CS)C(=O)O` [CYSTEINE]: the Ki was 350 µM. This Ki is about 6400-fold higher than that of the molecule before.

Turning to `O=C(O)C(CS)Cc1ccccc1` (stereo not given), the Ki worked out at 0.01 µM. The figure for `CCCNC(CS)C(=O)O` (stereo not given) is 5.6 µM. The figure for `CC(C)N[C@H](CS)C(=O)O` is 0.56 µM; for `O=C(O)C(CS)NCCc1ccccc1` (stereo not given) it is 0.065 µM; for `CC(C)CC(CS)C(=O)O` (stereo not given) it is 0.16 µM. In the case of `O=C(O)C(CS)NCC1CCCCC1` (stereo not given) it was 9.4 µM.
